Entries after “also recorded” stand apart in the source; their conditions may differ.
How the values were obtained:
[1] = tested on: LUHMES neurons; test: ATP assay, annonacin-treated LUHMES neurons; assay type: cell-based, human; settings: annonacin + PERK activator 200 nM or PERK inhibitor 300 nM, 48 h, vs no PERK modulator
Method: (§1) Nunc™ Nunclon™ Delta 6-well (for protein and mRNA) or 48-well (for cell assays) plates (Thermo Fisher Scientific, Waltham, Mass., USA) were coated with 100 μg/ml poly-L-lysine (Sigma-Aldrich, St. Louis, Mo., USA) and 5 μg/ml fibronectin (Sigma-Aldrich). LUHMES (Lund Human Mesencephalic) cells, derived from human embryonic ventral mesencephalic cells by conditional immortalization (Tet-off v-myc over-expression) were seeded out in a concentration of 130,000 cells/cm^2 to achieve a confluence of 50%. They were then differentiated for 8 days in a medium of DMEM/F12 (Sigma-Aldrich), 1 μg/ml tetracycline, […] and 490 μg/ml dbcAMP into post-mitotic neurons with a dopaminergic phenotype (Lotharius et al. 2005).
(§2) For all experiments with annonacin, the medium was replaced during the intoxication period with new medium containing glucose levels reduced to 250 μM, i.e. the physiological concentration in the human brain.
ATP assays were conducted using the ViaLight™ plus kit by Lonza according to the manufacturer's instructions. Luminescence was read with the FLUOstar Omega (BMG Labtech) platereader. The data was analyzed using the MARS Data Analysis Software (BMG Labtech) and Prism 6.

[2] = biological target: T1, PERK (Homo sapiens, UniProt Q9NZJ5); test: Western blot for pEIF2A and pNRF2, lentiviral 3R/4R-tau overexpression model; assay type: cell-based; set-up: endogenous in cells; host or cells: LUHMES neurons (differentiated, human); in A5 transduced with lentivirus for 3R-/4R-tau or mCherry, not for PERK; settings: for pNRF2 level: 4R-tau overexpressing cells, PERK activator 200 nM or PERK inhibitor 300 nM; for effect on pEIF2A and pNRF2: lentiviral 3R-tau overexpression
T1 sequence (Q9NZJ5 30-1116): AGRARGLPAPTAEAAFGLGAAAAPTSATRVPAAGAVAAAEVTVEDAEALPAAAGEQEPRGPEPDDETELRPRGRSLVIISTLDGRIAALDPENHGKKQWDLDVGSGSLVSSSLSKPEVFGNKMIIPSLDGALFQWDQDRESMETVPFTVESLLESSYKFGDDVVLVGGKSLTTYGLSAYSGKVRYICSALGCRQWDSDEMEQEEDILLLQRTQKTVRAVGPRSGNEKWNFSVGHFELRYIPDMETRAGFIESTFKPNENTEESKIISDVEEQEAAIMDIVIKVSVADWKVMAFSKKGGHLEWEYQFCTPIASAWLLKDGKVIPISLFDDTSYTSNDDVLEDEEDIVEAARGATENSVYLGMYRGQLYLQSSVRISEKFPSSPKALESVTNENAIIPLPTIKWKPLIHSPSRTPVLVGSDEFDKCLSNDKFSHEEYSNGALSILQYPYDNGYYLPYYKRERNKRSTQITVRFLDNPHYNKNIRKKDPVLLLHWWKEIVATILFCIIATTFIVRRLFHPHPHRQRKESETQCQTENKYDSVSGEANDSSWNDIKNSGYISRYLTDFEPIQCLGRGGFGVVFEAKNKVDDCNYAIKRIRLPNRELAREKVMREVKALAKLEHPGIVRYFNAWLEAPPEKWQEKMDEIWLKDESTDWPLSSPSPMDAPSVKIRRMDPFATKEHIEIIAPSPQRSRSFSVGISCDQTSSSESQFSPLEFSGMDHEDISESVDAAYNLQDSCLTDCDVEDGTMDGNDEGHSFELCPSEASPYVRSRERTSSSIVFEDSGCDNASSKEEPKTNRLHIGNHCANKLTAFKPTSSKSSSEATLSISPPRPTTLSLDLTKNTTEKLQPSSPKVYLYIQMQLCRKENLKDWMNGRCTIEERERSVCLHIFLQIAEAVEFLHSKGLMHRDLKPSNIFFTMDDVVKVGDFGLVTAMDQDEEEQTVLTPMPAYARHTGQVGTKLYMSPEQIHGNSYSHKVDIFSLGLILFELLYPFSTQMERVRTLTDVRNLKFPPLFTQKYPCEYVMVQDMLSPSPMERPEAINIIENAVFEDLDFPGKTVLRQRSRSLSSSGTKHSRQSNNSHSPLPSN

[3] = tested on: LUHMES neurons; test: MTT assay, annonacin-treated LUHMES neurons; assay type: cell-based, human; settings: annonacin + PERK activator 200 nM or PERK inhibitor 300 nM, 48 h, vs no PERK modulator
Method: as §1, §2
Thiazolyl Blue Tetrazolium […] (MTT) (Sigma Aldrich) was dissolved in sterile PBS to a concentration of 5 mg/ml. This stock solution was added to the cells in culture medium to achieve a final concentration of 0.5 mg/ml. The 48-well culture plate was then incubated at 37° C. for 1 h, the medium removed completely and frozen at −80° C. for 1 h. The plate was then thawed, 300 μl DMSO (AppliChem, Darmstadt, Germany) was added per well and the plate was shaken to ensure complete dissolution of the violet crystals. 100 μl from each well were transferred to a new 96-well plate and the absorbance was read with the FLUOstar Omega (BMG Labtech) platereader at a wavelength of 590 nm (reference wave length 630 nm). The data was analyzed using the MARS Data Analysis Software (BMG Labtech) and Prism 6.

Row | Compound | ATP concentration, effect of co-treatment [1] | pNRF2 level [2] | pEIF2A level ([2]; 4R-tau overexpression, PERK inhibitor 300 nM) | effect on pEIF2A and pNRF2 [2] | MTT test, effect of co-treatment [3] | pEIF2A level ([2]; lentiviral 3R or 4R-tau overexpression, PERK activator 200 nM)
1 | Cn1cc(-c2ccc3c(c2)CCN3C(=O)Cc2cccc(C(F)(F)F)c2)c2c(N)ncnc21 [GSK2606414, reference compound] | slightly improved ATP concentrations at the single annonacin concentration of 12.5 nM; also recorded: significant only at an annonacin concentration of 12.5 nM | not pNRF2 | decreased | no significant effect | did not significantly improve; also recorded: never significant | 
2 | CCN(CC)CCC(=O)N1N=C(c2c(-c3ccccc3)c3cc(Br)ccc3[nH]c2=O)CC1c1ccc(Br)cc1 (stereo not shown) [CCT020312, 6-bromo-3-[5-(4-bromo-phenyl)-1-(3-diethylamino-propionyl)-4,5-dihydro-1H-pyrazol-3-yl]-4-phenyl-1H-quinolin-2-one] | significant improvement | significantly increased |  | no significant effect | significant improvement | did not increase

Source: US10369123B2, “Perk activator for the treatment of neurodegenerative diseases” (DEUTSCHES ZENTRUM FÜR NEURODEGENERATIVE ERKRANKUNGEN E.V. …, priority 2014, dated 2019)
